Read-outs that look alike come from different tables or passages of the source.
Key:
[1] = system: patients; conditions: phase 2 clinical studies; particularly in more severely affected patients; cited from earlier work
[2] = rat, in vivo, po, 10 mg/kg
Method: (§1) Summary of Oral Pharmacokinetics of Reference Compound-T and Compound No. 100 in Wistar Rat:
(§2) Single dose pharmacokinetics of Reference compound-T (3-((2-(methylsulfonyl)hydrazino)carbonyl)-1-(2-oxo-2-thienylethyl)pyridinium chloride) and compound no. 100 was studied in male Wistar rat (280-300 gm, n=5) after oral administration at a dose of 10 mg/kg. Blood samples were obtained serially from jugular vein cannulated animals at selected time points and concentration of Reference compound-T and compound no. 100 in plasma was determined by LC-MS/MS. Non-compartmental pharmacokinetic analysis was performed using WinNonlin 5.2. […] 100.

[3] = system: AGE-LDL formation (Low density lipoprotein incubated with CuCl2); experiment: In vitro inhibition of AGE-LDL formation: LDL incubated with CuCl2, MDA-lysine adduct fluorescence; assay type: biochemical; conditions: Conc. 250 uM; LDL with CuCl2 at 37° C.
Method: In vitro Inhibition of AGE-LDL Formation:
Low density lipoprotein (LDL) was incubated with CuCl2 at 37° C. in phosphate buffered saline in the presence and absence of the following compounds. […] Results were expressed as % MDA-lysine adducts accumulation, considering the extent of the same formed upon incubation with CuCl2 alone as 100%.

[4] = male, dog, in vivo, po, 15 mg/kg
Method: (§3) Non-compartmental pharmacokinetic analysis was performed using WinNonlin 5.2.

[5] = in vivo; conditions: male, dog, po, 15 mg/kg
Method: as §3

[6] = in vivo; conditions: male, Wistar, rat, po, 10 mg/kg
Method: as §1, §2

[7] = system: AGE-BSA Formation (Bovine Serum Albumin incubated with ribose); experiment: In vitro prevention of advanced glycation endproducts (AGEs) accumulation: BSA incubated with ribose, fluorescence; conditions: Conc. 1 mM, one week
Method: A reduction in fluorescence intensity in the presence of the test compound is an indication of its ability to prevent accumulation of advanced glycation endproducts.
Bovine Serum Albumin was incubated with ribose alone as well as with ribose and different concentrations of the following compounds under aseptic conditions for one week. At the end of the incubation period fluorescence intensity of the samples was measured at excitation and emission wavelengths of 355 nm and 460 nm respectively.

[8] = Single dose oral pharmacokinetics of Reference compound-T and compound no. 100 in dog; conditions: male dog, 15 mg/kg, administered compound in plasma, mean
Method: as §3

[9] = Single dose oral pharmacokinetics of Reference compound-T and compound no. 100 in Wistar rat; conditions: male Wistar rat, 10 mg/kg
Method: as §1, §2

[10] = system: diabetic spontaneously hypertensive rats; conditions: cited from earlier work
[11] = system: Ob-ZSF1 animal model; conditions: cited from earlier work
[12] = administered compound in plasma, mean

## Cc1sc[n+](CC(=O)c2ccccc2)c1C [Alagebrium]
[1]
  Effect on cardiac function and systolic blood pressure: effective in improving cardiac function and uncontrolled systolic blood pressure

## CS(=O)(=O)NNC(=O)C1=CN(CC(=O)c2cccs2)C=CC1 [Compound no. 100, N′-(methylsulfonyl)-1-[2-oxo-2-(thiophen-2-yl)ethyl]-1,4-dihydropyridine-3-carbohydrazide]
[2]
  Absorption: absorbed rapidly
[3]
  % Inhibition of AGE-LDL-formation: ++++ (++++ indicate >30%)
[4]
  Maximum plasma concentration of reference compound converted after administration of compound no. 100 in comparison to the administration of ref. compound: ~3.6 times
[5]
  AUC(0-t): 1780 ng·h/mL
  Cmax: 397 ng/mL
[6]
  AUC(0-t): 1410 ng·h/mL
  Cmax: 1350 ng/mL
[7]
  % Inhibition of AGE-BSA Formation: ++ (++ indicate 11-20%)

## CS(=O)(=O)NNC(=O)c1ccc[n+](CC(=O)c2cccs2)c1.[Cl-] [Reference compound-T, 3-((2-(methylsulfonyl)hydrazino)carbonyl)-1-(2-oxo-2-thienylethyl)pyridinium chloride]
[8]
  AUC(0-24 hr): 2477.0 ng·h/mL
  Cmax: 258.4 ng/mL
[9]
  Absorption: absorbed rapidly
[9]; [12]
  AUC(0-8 hr): 203.6 ng·h/mL
  Cmax: 100.5 ng/mL

## CS(=O)(=O)NNC(=O)c1ccc[n+](CC(=O)c2cccs2)c1.[Br-] [TRC4149]
[10]
  Effect on endothelial and cardiac function: preserved endothelial and cardiac function

## CS(=O)(=O)NNC(=O)c1ccc[n+](CC(=O)c2cccs2)c1.[Cl-] [TRC4186]
[11]
  Effect on diabetic cardiomyopathy and nephropathy: preserved cardiac function and reduced the severity of renal dysfunction

## CS(=O)(=O)NNC(=O)C1C=CCN(CC(=O)c2cccs2)C1 (stereo not drawn) [compound 186, N′-(methylsulfonyl)-1-[2-oxo-2-(thiophen-2-yl)ethyl]-1,2,3,6-tetrahydropyridine-3-carbohydrazide]
[3]
  % Inhibition of AGE-LDL-formation: ++++ (++++ indicate >30%)
[7]
  % Inhibition of AGE-BSA Formation: + (+ indicate 0-10%)

Source: US20120046317A1, “NOVEL HETEROCYCLIC COMPOUNDS” (priority 2009, published 2012)
